Measurements as given in patent publication US11691961B2, “Molecule having pesticidal utility, and compositions, and processes, related thereto” (CORTEVA AGRISCIENCE LLC, priority 2018, dated 2023).

Assays:
[1] = system: Green Peach Aphid (Myzus persicae, MYZUPE); assay: Bioassay 1: Green Peach Aphid foliar spray on cabbage seedlings; type: in vivo; settings: for Myzus persicae Mean LC50 PPM: infested cabbage seedlings sprayed until runoff, live aphids counted three days after treatment, Abbott-corrected percent control, mean of replicates; for Myzus persicae % (percent increase in the Mean LC50 required): relative to F1: ((LC50 - LC50 of F1)/LC50 of F1)*100
Description: (§1) F1, CE1, CE2, CE3, and CE4 (2 mg each) were each dissolved in 2 mL of acetone/methanol (1:1) solvent, forming stock solutions of 1000 ppm for each test molecule. The stock solutions were diluted 5× with 0.025% Tween® 20 in water to obtain test solutions at 200 ppm for each test molecule. Subsequent 4× dilutions, in water containing 0.025% Tween® 20 and 10% acetone/methanol (1:1), were used to generate the desired concentrations for dose responses. A minimum of 5 concentrations of each test molecule were used for each assay.
Bioassay 1: Green Peach Aphid (Myzus persicae, MYZUPE) (“GPA”).
Test solutions of Formula One and the Comparative Examples, prepared as described above, were tested against GPA using the following procedure.
Cabbage seedlings grown in 3-inch pots, with 2-3 small (3-5 cm) true leaves, were used as test substrate. The seedlings were infested with 20-50 GPA (wingless adult and nymph stages) one day prior to chemical application. Four pots with individual seedlings were used for each treatment. A hand-held aspirator-type sprayer was used for spraying a solution to both sides of […] leaves until runoff. Reference plants (solvent check) were sprayed with the diluent only (0.025% Tween® 20 and 10% acetone/methanol (1:1) in water). Treated plants were held in a holding room for three days at approximately 25° C. and ambient relative humidity (RH) prior to grading. Evaluation was conducted by counting the number of live aphids per plant under a microscope three days after treatment. Percent control was measured using Abbott's correction formula (W. S. Abbott, “A Method of Computing the Effectiveness of an Insecticide” J. Econ. Entomol. 18 (1925), pp. 265-267) as follows:
(§2) [formula] where X=No. of live aphids on solvent check plants and Y=No. of live aphids on treated plants. Bioassay 2: Sweet potato Whitefly (Bemisia tabaci, BEMITA) (“SPW”).

[2] = system: Sweet potato Whitefly (Bemisia tabaci, BEMITA); assay: Bioassay 2: Sweet potato Whitefly foliar spray on cotton seedlings; type: in vivo; settings: for Bemisia tabaci Mean LC50 PPM: cotton seedlings sprayed at crawler emergence, 2-3 instar nymphs counted 7-9 days after treatment, Abbott-corrected percent control, mean of replicates; for Bemisia tabaci % (percent increase in the Mean LC50 required): relative to F1: ((LC50 - LC50 of F1)/LC50 of F1)*100
Description: as §1, §2
Test solutions of Formula One and the Comparative Examples, prepared as described above, were tested against SPW using the following procedure.
Cotton seedlings grown in 3-inch pots, pruned so that only one true leaf remained, were used as test substrate. Adult B. tabaci were allowed to colonize these plants and lay eggs for 24 hours after which all adults were removed from the plants using compressed air. Plants were monitored for egg development and, when crawler emergence was underway (>25% emergence based on visual examination using a microscope), the plants were sprayed using the test solutions and methods described above for green peach aphids (GPA). Treated plants were held in a holding room at approximately 25° C. and ambient relative humidity (RH) prior to grading. Evaluation was conducted by counting the number of developed 2-3 instar nymphs per plant under a microscope 7-9 days after treatment. Percent control was measured using Abbott's correction formula (W. S. Abbott, “A Method of Computing the Effectiveness of an Insecticide” J. Econ. Entomol. 18 (1925), pp. 265-267) as follows:
[formula] where X=No. of live nymphs on solvent check plants and Y=No. of live nymphs on treated plants. Analysis of Bioassays

Compound: CC(C(=O)N(C)c1cn(-c2cccnc2)nc1Cl)S(C)(=O)=O (centres unmarked) [CE1, N-(3-chloro-1-(pyridin-3-yl)-1H-pyrazol-4-yl)-N-methyl-2-(methylsulfonyl)propanamide]
- Myzus persicae Mean LC50 PPM [1]: 0.29 PPM
- Bemisia tabaci Mean LC50 PPM [2]: 5.61 PPM
- Bemisia tabaci % (percent increase in the Mean LC50 required) [2]: 15%

Compound: CC(C(=O)Nc1cn(-c2cccnc2)nc1Cl)S(C)(=O)=O (centres unmarked) [Molecule F1, N-(3-chloro-1-(pyridin-3-yl)-1H-pyrazol-4-yl)-2-(methylsulfonyl)propanamide]
- Myzus persicae Mean LC50 PPM [1]: 0.07 PPM
- Bemisia tabaci Mean LC50 PPM [2]: 4.87 PPM

Compound: CS(=O)(=O)CC(=O)Nc1cn(-c2cccnc2)nc1Cl [CE3, N-(3-chloro-1-(pyridin-3-yl)-1H-pyrazol-4-yl)-2-(methylsulfonyl)acetamide]
- Myzus persicae Mean LC50 PPM [1]: 0.05 PPM
- Myzus persicae % (percent increase in the Mean LC50 required) [1]: −29%
- Bemisia tabaci Mean LC50 PPM [2]: 25.35 PPM

Compound: CC(C)(C(=O)Nc1cn(-c2cccnc2)nc1Cl)S(C)(=O)=O [CE4, N-(3-chloro-1-(pyridin-3-yl)-1H-pyrazol-4-yl)-2-methyl-2-(methylsulfonyl)propanamide]
- Myzus persicae Mean LC50 PPM [1]: 2.17 PPM
- Myzus persicae % (percent increase in the Mean LC50 required) [1]: 3000%
- Bemisia tabaci Mean LC50 PPM [2]: 9.72 PPM
- Bemisia tabaci % (percent increase in the Mean LC50 required) [2]: 100%

Compound: CN(C(=O)CS(C)(=O)=O)c1cn(-c2cccnc2)nc1Cl [CE2, N-(3-chloro-1-(pyridin-3-yl)-1H-pyrazol-4-yl)-N-methyl-2-(methylsulfonyl)acetamide]
- Myzus persicae Mean LC50 PPM [1]: 0.52 PPM
- Bemisia tabaci Mean LC50 PPM [2]: 21.01 PPM
